According to ChEMBL document CHEMBL3576827, “New anti-inflammatory tocopherol-derived metabolites from the Taiwanese soft coral Cladiella hirsuta” (Bioorg Med Chem Lett, 2015):

How the values were obtained:
Details in all cases: Neutrophil
[1] = (§1) Antiinflammatory activity in human neutrophils assessed as inhibition of fMLP/CB-induced superoxide anion generation by measuring superoxide dismutase-inhibitable reduction of ferricytochrome c preincubated for 5 mins followed by fMLP/CB-induction measured after 10 mins by spectrophotometric analysis; type: functional, cell-based
[2] = Antiinflammatory activity in human neutrophils assessed as inhibition of fMLP/CB-induced elastase release using MeO-Suc-Ala-Ala-Pro-Val-p-nitroanilide as elastase substrate at 10 uM preincubated for 5 mins followed by fMLP/CB-induction by spectroscopic analysis; type: functional
[3] = as §1, with “ferricytochrome c at 10 uM preincubated for” for “ferricytochrome c preincubated for”; type: functional
[4] = Antiinflammatory activity in human neutrophils assessed as inhibition of fMLP/CB-induced elastase release using MeO-Suc-Ala-Ala-Pro-Val-p-nitroanilide as elastase substrate preincubated for 5 mins followed by fMLP/CB-induction by spectroscopic analysis; type: functional, cell-based

Structure (SMILES) | IC50 [1] | inhibition at 10 µM [2] [%] | inhibition at 10 µM [3] [%] | IC50 [4]
COC(=O)C(C)CCCC(C)(O)CCC1=C(C)C(=O)C2(C)OC2(C)C1=O (stereo not given) | > 10 µM | 21.2 | 8.5 | > 10 µM
O=c1cc(N2CCOCC2)oc2c(-c3ccccc3)cccc12 [LY-294002] | 0.6 µg/mL | – | – | 1.2 µg/mL
COC(=O)C(C)CCC[C@]1(C)CC[C@]2(O1)C(=O)C(C)=C(C)[C@@]2(O)C(C)=O (stereo not given in full) | 4.1 µM | 89.5 | 78.3 | 3.7 µM
